Where two headings read alike, the source gives them in different places.
Assays:
HCV NS3/4A protease GT1b = HCV NS3/4A protease GT1b (Hepatitis C virus genotype 1b, UniProt Q9WPH5); assay: HCV NS3/4A protease biochemical assay; settings: 30 min preincubation, read-out: Mean IC50 ± SD
Excerpt: (§1) . […] Genes encoding NS3/4A were derived from laboratory strains 1a-H77 (GenBank accession number NC_004102) and 1b-N (GenBank accession number AF139594) or from clinical samples from patients infected with genotype 2a, 2b, 3a, or 4a. All patients provided written informed consent. Clinical studies were designed according to Good Clinical Practice guidelines, the Declaration of Helsinki, and applicable local regulations, with independent ethics committee or institutional review board approval for all study sites. The genotype 5a NS3/4A gene sequence was synthetically constructed based on the sequence of the clinical isolate SA13 (GenBank accession number AF064490) ([48]), whereas the genotype 6a NS3/4A gene sequence was synthetically constructed based on a consensus sequence derived from the alignment of 15 genotype 6a sequences available in GenBank. The NS3/4A genes were each cloned into the protein expression vector pET14b (Novagen, Madison, WI), and a clone with an NS3/4A protease sequence that matched the consensus sequence for each sample was subsequently selected for protein expression and purification. Protease activity was measured by continuous monitoring of the fluorescence change associated with the cleavage of a fluorogenic depsipeptide (EDANS/DABCYL) substrate using a purified recombinant HCV NS3/4A protease as described previously ([49]). […]

HCV NS3/4A protease GT2b = HCV NS3/4A protease GT2b (Hepatitis C virus genotype 2b, UniProt P26661); assay: HCV NS3/4A protease biochemical assay; settings: 30 min preincubation, read-out: Mean IC50 ± SD
Excerpt: as §1

HCV NS3/4A protease GT6a = HCV NS3/4A protease GT6a (Hepatitis C virus genotype 6a, UniProt O39927); assay: HCV NS3/4A protease biochemical assay; settings: 30 min preincubation, read-out: Mean IC50 ± SD
Excerpt: as §1

Chymase = biological target: T1, Chymase (Homo sapiens, UniProt P23946); assay: Human protease biochemical assay; settings: read-out: Mean IC50 ± SD
T1 construct: purchased Sigma-Aldrich
Method: (§2) […]; catalog number M9771; Sigma-Aldrich), and 0.05 U/ml elastase (excitation wavelength = 370 nm, emission wavelength = 460 nm); (ii) for chymase, 0.4 M Tris, pH 8.0, 1.8 M NaCl, 9% dimethyl sulfoxide, 0.4 mM substrate (Suc-AAF-AMC; catalog number S8758; Sigma-Aldrich), and 0.063 U/ml chymase (excitation wavelength = 370 nm, emission wavelength = 460 nm); (iii) for cathepsin B, 50 mM MES (morpholineethanesulfonic acid), pH 6.0, 50 mM NaCl, 2 mM EDTA, 0.1% Triton X-100, 0.4 mM substrate (Z-RR-AMC; catalog number C5429; Sigma-Aldrich), and 1.7 μg/ml cathepsin B (excitation wavelength = 370 nm, emission wavelength = 460 nm); (iv and v) for chymotrypsin types II and VII, 50 mM Tris, pH 8, 10 mM CaCl2, 0.1% Triton X-100, 0.25 mM substrate (Suc-AAF-AMC; catalog number S8758; Sigma-Aldrich), and 0.5 nM chymotrypsin type II or type VII (excitation wavelength = 370 nm, emission wavelength = 460 nm); (vi) for kallikrein, 50 mM Tris, pH 7.4, 0.5 mM EDTA, 0.05% Tween 20, 150 mM NaCl, 0.35 mM substrate (H-Pro-Phe-Arg-AMC; catalog number I-1295; Bachem), and 2 nM kallikrein (excitation wavelength = 355 nm, emission wavelength = 460 nm); and (vii) for urokinase, 50 mM Tris, pH 7.4, 0.15 M NaCl, 0.5% Pluronic F-68, 0.2 mM substrate (pyro-Glu Arg-p-nitroanilide-HCl; catalog number S-2444; Diapharma), and 3 nM urokinase (absorbance at 405 nm).

Chymotrypsin type II = biological target: T2, Chymotrypsin type II (Bos taurus, UniProt P00766); assay: Human protease biochemical assay; settings: read-out: Mean IC50 ± SD
T2 construct: purchased Sigma-Aldrich
Method: as §2

Chymotrypsin type VII = biological target: T3, Chymotrypsin type VII (Bos taurus, UniProt P00766); assay: Human protease biochemical assay; settings: read-out: Mean IC50 ± SD
T3 construct: purchased Sigma-Aldrich
Method: as §2

[1] = test system: HCV subgenomic stable replicons containing proteases from genotypes 1 to 6; assay: Stable HCV replicon assay, several genotypes; type: cell-based; settings: Hepatitis C virus, Huh-7, read-out: EC50, range over stable replicons
Excerpt: (§3) Five of these nine cell lines have been described previously, including those transfected with genotypes 1a H77, 1b Con1, 3a, 4a, and 6a ([28]). […] The genotype 2b and 6e NS3 sequences were each synthetically constructed based on a consensus sequence derived from the alignment of 15 genotype 2b and 4 genotype 6e sequences, respectively. All replicon constructs were bicistronic subgenomic replicons similar to those described by Bartenschlager and coworkers, and the replicon cell lines were generated by introducing these constructs into cells of an Huh-7 human hepatoma-derived cell line ([50]). The inhibitory effect of the PIs on HCV replication in replicon cells was determined in Dulbecco's modified Eagle medium containing 5% fetal bovine serum with or without 40% human plasma (Bioreclamation, Westbury, NY). The EC50s were determined using nonlinear regression curve fitting as described previously ([33]).

HIV-1 IIIB strain = assay: HIV-1 antiviral cytoprotection assay, CEM-SS cells; type: cell-based, human immunodeficiency virus type 1; settings: Human immunodeficiency virus 1, IIIB, read-out: Mean EC50 ± SD
[2] = test system: HCV genotype 1a replicon cells; assay: Drug-resistant colony selection in replicon cells; type: cell-based, Hepatitis C virus
Excerpt: (§4) . After approximately 3 weeks of treatment, the surviving replicon colonies in one plate for each selection condition were stained with crystal violet and counted, whereas approximately 20 to 30 colonies in a replicate plate or most of the colonies, if less than 20 colonies survived the selection, were picked and further expanded for genotyping. The expanded colonies were lysed in CellsDirect lysis buffer (Invitrogen, MA), and the NS3-coding region from each colony was amplified by reverse transcription-PCR and sequenced. For genotype 1a, 1b, 2a, and 5a colonies, the full-length NS3 sequence was determined, whereas for colonies of the chimeric replicon containing the N-terminal region of NS3 from genotype 2b, 3a, 4a, or 6a, the sequence encoding the NS3 N-terminal region was determined. We defined a substitution in a replicon to be an amino acid difference in a sequence from a posttreatment sample relative to the sequence of the corresponding untreated sample. For resistance selection studies, NS3 substitutions detected at the following amino acid positions associated with resistance to the HCV PI class in >2 colonies in each replicon selection are reported: 36, 43, 54, 55, 56, 80, 122, 155, 156, and 168. In addition, substitutions detected at other amino acid positions in the NS3 protease domain in >2 colonies in each replicon selection are also reported.
(§5) […]. The drug-resistant colonies were fixed and stained with crystal violet, and the number of colonies was determined.

[3] = test system: HCV genotype 1b replicon cells; assay: Drug-resistant colony selection in replicon cells; type: cell-based, Hepatitis C virus
Excerpt: as §4, §5

[4] = test system: HCV subgenomic stable replicon GT6e; assay: microbe, parasite or virus in culture; type: cell-based, Hepatitis C virus; settings: read-out: Mean EC50 ± SD
Excerpt: as §3

T1 sequence (P23946 22-247): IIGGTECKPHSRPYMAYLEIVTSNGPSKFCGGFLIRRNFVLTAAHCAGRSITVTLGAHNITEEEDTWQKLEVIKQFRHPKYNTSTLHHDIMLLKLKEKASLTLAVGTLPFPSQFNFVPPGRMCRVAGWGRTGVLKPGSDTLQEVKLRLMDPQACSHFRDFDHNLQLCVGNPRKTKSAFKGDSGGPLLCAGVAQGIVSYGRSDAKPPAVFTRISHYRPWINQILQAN

## CC(C)(C)[C@@H]1NC(=O)O[C@@H]2CCC[C@H]2OC/C=C/C(F)(F)c2nc3ccccc3nc2O[C@@H]2C[C@@H](C(=O)N[C@]3(C(=O)NS(=O)(=O)C4(C)CC4)C[C@H]3C(F)F)N(C2)C1=O [Glecaprevir, (3aR,7S,10S,12R,21E,24aR)-7-tert-butyl-N-[(1R,2R)-2-(difluoromethyl)-1-{[(1-methylcyclopropyl)sulfonyl]carbamoyl}cyclopropyl]-20,20-difluoro-5,8-dioxo-2,3,3a,5,6,7,8,11,12,20,23,24a-dodecahydro-1H,10H-9,12-methanocyclopenta[18,19][1,10,17,3,6]trioxadiazacyclononadecino[11,12-b]quinoxaline-10-carboxamide]
HCV NS3/4A protease GT1b
  IC50: 8.9 ± 1.6 nM
HCV NS3/4A protease GT2b
  IC50: 3.8 ± 0.96 nM
HCV NS3/4A protease GT6a
  IC50: 11.3 ± 1.8 nM
Chymase
  IC50: > 200000 nM
Chymotrypsin type II
  IC50: > 200000 nM
Chymotrypsin type VII
  IC50: > 200000 nM
[1]
  EC50: 0.21 to 4.6 nM
HIV-1 IIIB strain
  EC50: > 22000 nM
[2]; 10× EC50, about 3 weeks
  Colony survival: 0.043%
[2]; 100× EC50
  Colony survival: 0.0029%
[3]; 10× EC50, about 3 weeks
  Colony survival: 0.047%
[3]; 100× EC50
  Colony survival: 0.03%

## C=C[C@@H]1C[C@]1(NC(=O)[C@@H]1C[C@@H]2CN1C(=O)[C@H](C(C)(C)C)NC(=O)O[C@@H]1C[C@H]1CCCCCc1nc3ccc(OC)cc3nc1O2)C(=O)NS(=O)(=O)C1CC1 [Grazoprevir]
[4]; 0% human plasma
  EC50: 0.25 ± 0.01 nM

## Cc1cnc(C(=O)N[C@H]2CCCCC/C=C\[C@@H]3C[C@@]3(C(=O)NS(=O)(=O)C3CC3)NC(=O)[C@@H]3C[C@@H](Oc4nc5ccccc5c5ccccc45)CN3C2=O)cn1 [Paritaprevir]
[4]; Hepatitis C virus, Huh-7, 0% human plasma
  EC50: 0.44 ± 0.17 nM

Source: article PMC5740381 (Antimicrobial Agents and Chemotherapy, 2017)
